The record followed here is US11230526B1, “Cylcoalkenyl derivatives useful as agonists of the GPR120 and/or GPR40 receptors” (Janssen Pharmaceutica NV, priority 2018, dated 2022).

In assay [1] the test system is C57B16 mice on a high fat diet. Kind of assay: GPR120 DIO mice OGTT screening. It is filed as in vivo, mouse. As to conditions: DIO mice (60% HFD), glucose AUC −30 to 90 min, % change from vehicle. As for the experimental part: GPR120 DIO Mice OGTT Screening
18-22 week old, C57B16 mice on a high fat diet (60% HFD) for 12-16 weeks (ave. body weight ˜ 37-41 g) were fasted for 6 hr, with removal of food occurring at 7 am on the morning of the study. The animals were sorted into treatment groups the day before the study by body weight. Animals outside the bounds of ˜30-50 g were left out of the study. The animals had been handled and shammed a total of 5-8 days (1-3 days immediately prior to the study). Glucose (in 1 mL syringes) was drawn up the morning of the study. Test compounds were kept spinning and were only drawn into 1 ml syringes prior to study commencement. Animals were bled via tail snip to determine basal glucose levels prior to dosing of treatments. An Ascensia BREEZE Blood Glucose Monitoring System by Bayer was used for determining glucose levels.
Animals were moved into the testing room at ˜9-11 am, to yield them time to acclimate. The bleeds and dosing started at approximately 1 pm in 30-second intervals per animal. All groups were dosed 30 minutes prior to glucose administration at a dose volume of 10 ml/kg (the dose volume was calculated separately for each individual animal). Test compounds were administered at one or more of the following dosages: 0.1 mg/kg, 0.3 mg/kg, 1 mg/kg, 3 mg/kg and 10 mg/kg.
Thirty minutes after the first dose (with test compound) animals were bled again for a second baseline, or T=0, and immediately dosed with glucose (20% solution, TEKNOVA, 250 ml sterile bottle w/catalogue number G0525) via a PO injection. The exact dose volume for glucose was also calculated separately for each individual animal.
Blood glucose was measured at 15, 30, 45, 60, and 90 minutes post-glucose administration via the snipped tail. If an animal reached a value of “HI”, the upper limit of the glucometer (600 mg/dl) was substituted as the blood glucose value and the study was analyzed as normal with no exclusions. If 50% or more of any treatment group reaches a “HI” value at least once, the study was considered invalid and repeated. Glucose values were typed into an EXCEL spreadsheet where they were used to calculate glucose AUC and delta AUC post-compound and post-glucose. The glucose excursion curves and the different versions of the AUC's were graphed in GraphPad Prism 5.
Note: All statistics completed in this study were completed using the statistical software package GraphPad Prism 5. Standard procedures for analyzing data sets from screening GPR120 compounds in DIO mouse OGTT's were as listed here below. In addition to the statistics that were run using GraphPad Prism 5, Microsoft Excel was used to calculate the percent changes in AUC from vehicle groups as detailed below.
Change from −30 to 0 Baseline Glucose, Raw Glucose AUC −30 to 90 min, Delta Glucose AUC −30 to 90 min, Raw Glucose AUC 0 to 90 min, Delta Glucose AUC 0 to 90 min were analyzed using Column Statistics Analysis, with mean values used to calculate % change from the vehicle mean group, as well as mean, SEM and/or % change from vehicle, where appropriate, and using One-Way ANOVA w/a Tukey Post-Test (Comparing All Pairs of Columns) with each treatment group examined to see if it was statistically significant compared to vehicle (*=P<0.05, **=P<0.01, ***=P<0.001).

In assay [2] the target is T1, long form of human GPR120 (Homo sapiens, UniProt Q5NUL3).
T1 construct: host or cells: PathHunter CHO-K1 GPR120 β-Arrestin Cell Line
T1 sequence (Q5NUL3 1-377 isoform Q5NUL3-1): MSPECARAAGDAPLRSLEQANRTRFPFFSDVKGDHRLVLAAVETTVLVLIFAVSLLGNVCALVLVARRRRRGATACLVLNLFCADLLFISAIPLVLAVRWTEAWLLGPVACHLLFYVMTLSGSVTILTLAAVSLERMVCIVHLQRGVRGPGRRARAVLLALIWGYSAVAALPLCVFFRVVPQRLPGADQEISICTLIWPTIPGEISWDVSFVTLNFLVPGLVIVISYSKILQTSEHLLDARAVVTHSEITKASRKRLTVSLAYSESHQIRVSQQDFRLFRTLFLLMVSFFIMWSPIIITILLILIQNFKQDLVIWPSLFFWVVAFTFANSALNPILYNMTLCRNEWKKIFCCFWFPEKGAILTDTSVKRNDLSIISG
T1 sequence (P32121 whole entry partner): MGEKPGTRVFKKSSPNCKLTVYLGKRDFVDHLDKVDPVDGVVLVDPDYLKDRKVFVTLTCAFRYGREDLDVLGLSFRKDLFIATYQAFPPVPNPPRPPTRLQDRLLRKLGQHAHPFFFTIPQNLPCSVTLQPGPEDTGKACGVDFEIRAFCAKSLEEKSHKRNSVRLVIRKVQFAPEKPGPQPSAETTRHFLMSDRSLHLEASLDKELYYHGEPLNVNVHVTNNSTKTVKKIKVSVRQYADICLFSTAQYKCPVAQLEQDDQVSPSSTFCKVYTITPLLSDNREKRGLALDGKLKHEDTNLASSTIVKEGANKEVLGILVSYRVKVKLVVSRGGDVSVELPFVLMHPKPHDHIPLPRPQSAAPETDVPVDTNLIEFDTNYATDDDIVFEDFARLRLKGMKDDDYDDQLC
Kind of assay: Human GPR120 DiscoveRx PathHunter Beta-Arrestin assay, Procedure β-arrestin A. It is filed as cell-based. The procedure, abridged: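 PathHunter CHO-K1 cells expressing long-form human GPR120 (3000/well) were seeded overnight. They were then preincubated 60 min in HBSS with 20 mM HEPES and 0.1% BSA, pH 7.4, and exposed to compound for 90 min at 37 °C. β-Arrestin recruitment was read as β-gal complementation luminescence. EC50 came from % activity versus positive control, Hill slope fixed at 1.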

The structures appear in SMILES notation.

A word on the EC50: it is the midpoint of the concentration-response curve. A lower EC50 goes with higher potency in that assay.

`Cc1ccc(C2=C(COc3ccc(CCC(=O)O)c(C)c3C)CCC2)cc1` [Compound 52, 3-[2,3-dimethyl-4-[[2-(p-tolyl)cyclopenten-1-yl]methoxy]phenyl]Propanoic Acid]: the “DIO Lowering (−30 to 90)” value in assay [1] (10 mg/kg) was −86%.

`Cc1ccc(C2=C(COc3ccc(CCC(=O)O)c(C)c3C)CCC2)cc1F` [Compound 80, 3-(4-((2-(3-fluoro-4-methylphenyl)cyclopent-1-en-1-yl)methoxy)-2,3-dimethylphenyl)Propanoic Acid]: in assay [2], it took 73 nM to reach a half-maximal effect (EC50). For the same compound, the entries for the “DIO Lowering (−30 to 90)” value in assay [1] (3 mg/kg) and in assay [1] (10 mg/kg) were −33% and −60%, respectively.

For the compound `Cc1ccc(C2=C(COc3ccc(CCC(=O)O)c(F)c3F)CCC2)cc1` [Compound 94, 3-(2,3-difluoro-4-((2-(p-tolyl)cyclopent-1-en-1-yl)methoxy)phenyl)Propanoic Acid], the “DIO Lowering (−30 to 90)” value in assay [1] (10 mg/kg) was −11%.

In assay [2], `Cc1c(CCC(=O)O)ccc(OCC2=C(c3ccc(Cl)cc3)CC(F)(F)C2)c1C` [Compound 137, 3-[4-[[2-(4-chlorophenyl)-4,4-difluoro-cyclopenten-1-yl]methoxy]-2,3-dimethyl-phenyl]Propanoic Acid] had an EC50 of 43 nM. Moreover, in assay [1] (10 mg/kg), the “DIO Lowering (−30 to 90)” value is listed as −56%.

`Cc1c(CCC(=O)O)ccc(OCC2=C(c3ccc(Cl)cc3)CCC(F)(F)C2)c1C` [Compound 468, 3-[4-[[2-(4-chlorophenyl)-5,5-difluoro-cyclohexen-1-yl]methoxy]-2,3-dimethyl-phenyl]Propanoic Acid] came in with a concentration giving a half-maximal response (EC50) in assay [2] of 168 nM. The “DIO Lowering (−30 to 90)” value in assay [1] (10 mg/kg) is recorded as −85%.

In assay [2], `Cc1c(CCC(=O)O)ccc(OCC2=C(c3ccc(Cl)cc3)CCCC2)c1C` [Compound 474, 3-[4-[[2-(4-chlorophenyl)cyclohexen-1-yl]methoxy]-2,3-dimethyl-phenyl]Propanoic Acid] returned an EC50 of 354 nM.

For `Cc1ccc(C2=C(COc3ccc(CCC(=O)O)c(F)c3F)CCCC2)cc1F` [Compound 494, 3-[2,3-difluoro-4-[[2-(3-fluoro-4-methyl-phenyl)cyclohexen-1-yl]methoxy]phenyl]Propanoic Acid], the “DIO Lowering (−30 to 90)” value in assay [1] (10 mg/kg) was −28%.
